Results as given in US10570129B2 (Zoetis Services LLC, priority 2015, dated 2020).

Columns and labels:
Haemonchus contortus L3 = experiment: microbe, parasite or virus in culture; assay type: cell-based; details: Haemonchus contortus, 96 h, read-out: HcL3 Minimal Effective Concentration (MEC)
[1] = tested on: Trichostrongylus colubriformis; experiment: Jird efficacy model; assay type: in vivo; details: Trichostrongylus colubriformis, sc, 96 h, read-out: Jird % (percentage efficacy)
D. immitis microfilariae = experiment: Dirofilaria immitis, microfilariae (DiMF) in vitro motility assay; assay type: cell-based; details: Dirofilaria immitis, 72 h, read-out: DiMF minimally effective dose (MEC)

## O=C(NCc1ccnc(Cl)c1)n1c2c(c3cc(Cl)ccc31)CN(C/C=C/c1ccc(F)c(Cl)c1)CC2 [Example 239, (E)-8-chloro-2-(3-(3-chloro-4-fluorophenyl)allyl)-N-((2-chloropyridin-4-yl)methyl)-1,2,3,4-tetrahydro-5H-pyrido[4,3-b]indole-5-carboxamide]
Haemonchus contortus L3
  minimal effective concentration: 0.3 µM
[1]
  inhibition in vivo at 10 mg/kg: 98%
D. immitis microfilariae
  minimal effective concentration: 3.3 µM

## N#Cc1ccc2c3c(n(C(=O)NCc4ccnc(Cl)c4)c2c1)CCN(C/C=C/c1cc(F)c(F)c(F)c1)C3 [Example 29, (E)-N-((2-chloropyridin-4-yl)methyl)-7-cyano-2-(3-(3,4,5-trifluorophenyl)allyl)-1,2,3,4-tetrahydro-5H-pyrido[4,3-b]indole-5-carboxamide]
Haemonchus contortus L3
  minimal effective concentration: 0.7 µM
[1]
  inhibition in vivo at 10 mg/kg: 99%
D. immitis microfilariae
  minimal effective concentration: 1.8 µM

## N#Cc1ccc2c(c1)c1c(n2C(=O)NCc2ccnc(F)c2)CCN(C/C=C/c2ccc(Br)cc2F)C1 [Example 102, (E)-2-(3-(4-bromo-2-fluorophenyl)allyl)-8-cyano-N-((2-fluoropyridin-4-yl)methyl)-1,2,3,4-tetrahydro-5H-pyrido[4,3-b]indole-5-carboxamide]
Haemonchus contortus L3
  minimal effective concentration: 0.3 µM
[1]
  inhibition in vivo at 10 mg/kg: 97%
D. immitis microfilariae
  minimal effective concentration: 3.3 µM

## N#Cc1ccc2c3c(n(C(=O)NCc4ccnc(Cl)c4)c2c1)CCN(C/C=C/c1ccc(Cl)cc1F)C3 [Example 7, (E)-2-(3-(4-chloro-2-fluorophenyl)allyl)-N-((2-chloropyridin-4-yl)methyl)-7-cyano-1,2,3,4-tetrahydro-5H-pyrido[4,3-b]indole-5-carboxamide]
Haemonchus contortus L3
  minimal effective concentration: 2.4 µM
[1]
  inhibition in vivo at 10 mg/kg: 100%
D. immitis microfilariae
  minimal effective concentration: 10 µM

## O=C(NCc1ccnc(F)c1)n1c2c(c3ccc(C(F)(F)F)cc31)CN(C/C=C/c1ccc(Cl)c(F)c1)CC2 [Example 163, (E)-2-(3-(4-chloro-3-fluorophenyl)allyl)-N-((2-fluoropyridin-4-yl)methyl)-7-(trifluoromethyl)-1,2,3,4-tetrahydro-5H-pyrido[4,3-b]indole-5-carboxamide]
Haemonchus contortus L3
  minimal effective concentration: 1.8 µM
[1]
  inhibition in vivo at 10 mg/kg: 100%
D. immitis microfilariae
  minimal effective concentration: 5.7 µM

## O=C(NCc1ccnc(Cl)c1)n1c2c(c3c(Cl)c(F)ccc31)CN(C/C=C/c1ccc(F)cc1)CC2 [Example 307, (E)-9-chloro-N-((2-chloropyridin-4-yl)methyl)-8-fluoro-2-(3-(4-fluorophenyl)allyl)-1,2,3,4-tetrahydro-5H-pyrido[4,3-b]indole-5-carboxamide]
Haemonchus contortus L3
  minimal effective concentration: 0.5 µM
[1]
  inhibition in vivo at 10 mg/kg: 100%
D. immitis microfilariae
  minimal effective concentration: 3.3 µM

## O=C(NCc1ccnc(Cl)c1)n1c2c(c3cc(OC(F)(F)F)ccc31)CN(C/C=C/c1ccc(OC(F)(F)F)cc1)CC2 [Example 395, (E)-N-((2-chloropyridin-4-yl)methyl)-8-(trifluoromethoxy)-2-(3-(4-(trifluoro-methoxy)phenyl)allyl)-1,2,3,4-tetrahydro-5H-pyrido[4,3-b]indole-5-carboxamide]
Haemonchus contortus L3
  minimal effective concentration: 3.3 µM
D. immitis microfilariae
  minimal effective concentration: 22.2 µM

## N#Cc1ccc(/C=C/CN2CCc3c(c4cc(Cl)c(Cl)cc4n3C(=O)NCc3ccnc(Cl)c3)C2)cc1 [Example 279, (E)-7,8-dichloro-N-((2-chloropyridin-4-yl)methyl)-2-(3-(4-cyanophenyl)allyl)-1,2,3,4-tetrahydro-5H-pyrido[4,3-b]indole-5-carboxamide]
Haemonchus contortus L3
  minimal effective concentration: 1.8 µM
D. immitis microfilariae
  minimal effective concentration: > 100 µM

## O=C(NCc1ccnc(Cl)c1)n1c2c(c3c(C(F)(F)F)cccc31)CN(C/C=C/c1ccc(Cl)cc1)CC2 [Example 157, (E)-2-(3-(4-chlorophenyl)allyl)-N-((2-chloropyridin-4-yl)methyl)-9-(trifluoromethyl)-1,2,3,4-tetrahydro-5H-pyrido[4,3-b]indole-5-carboxamide]
Haemonchus contortus L3
  minimal effective concentration: 3.8 µM
D. immitis microfilariae
  minimal effective concentration: 11.9 µM

## O=C(NCc1ccnc(Cl)c1)n1c2c(c3ccc(OC(F)(F)F)cc31)CN(C/C=C/c1ccc(Cl)c(F)c1)CC2 [Example 336, (E)-2-(3-(4-chloro-3-fluorophenyl)allyl)-N-((2-chloropyridin-4-yl)methyl)-7-(trifluoromethoxy)-1,2,3,4-tetrahydro-5H-pyrido[4,3-b]indole-5-carboxamide]
Haemonchus contortus L3
  minimal effective concentration: 1 µM
D. immitis microfilariae
  minimal effective concentration: 33 µM

## O=C(NCc1ccnc(Cl)c1)n1c2c(c3cc(Cl)ccc31)CN(C/C=C/c1ccc(Cl)c(F)c1)CC2 [Example 232, (E)-8-chloro-2-(3-(4-chloro-3-fluorophenyl)allyl)-N-((2-chloropyridin-4-yl)methyl)-1,2,3,4-tetrahydro-5H-pyrido[4,3-b]indole-5-carboxamide]
Haemonchus contortus L3
  minimal effective concentration: 1 µM
D. immitis microfilariae
  minimal effective concentration: 10 µM

## O=C(NCc1ccnc(Cl)c1)n1c2c(c3c(F)cc(C(F)(F)F)cc31)CN(C/C=C/c1ccc(F)cc1)CC2 [Example 325, (E)-N-((2-chloropyridin-4-yl)methyl)-9-fluoro-2-(3-(4-fluorophenyl)allyl)-7-(trifluoromethyl)-1,2,3,4-tetrahydro-5H-pyrido[4,3-b]indole-5-carboxamide]
Haemonchus contortus L3
  minimal effective concentration: 3.3 µM
D. immitis microfilariae
  minimal effective concentration: 7.6 µM

## N#Cc1ccc2c3c(n(C(=O)NCc4ccnc(F)c4)c2c1)CCN(C/C=C/c1cc(F)c(Cl)c(F)c1)C3 [Example 50, (E)-2-(3-(4-chloro-3,5-difluorophenyl)allyl)-7-cyano-N-((2-fluoropyridin-4-yl)methyl)-1,2,3,4-tetrahydro-5H-pyrido[4,3-b]indole-5-carboxamide]
Haemonchus contortus L3
  minimal effective concentration: 1.8 µM
D. immitis microfilariae
  minimal effective concentration: 10 µM

## N#Cc1ccc(/C=C/CN2CCc3c(c4cc(C(F)(F)F)ccc4n3C(=O)NCc3ccnc(F)c3)C2)cc1F [Example 416, (E)-2-(3-(4-cyano-3-fluorophenyl)allyl)-N-((2-fluoropyridin-4-yl)methyl)-8-(trifluoromethyl)-1,2,3,4-tetrahydro-5H-pyrido[4,3-b]indole-5-carboxamide]
Haemonchus contortus L3
  minimal effective concentration: 1.8 µM
D. immitis microfilariae
  minimal effective concentration: 57.4 µM

## N#Cc1ccc2c(c1)c1c(n2C(=O)NCc2ccnc(Cl)c2)CCN(C/C=C/c2ccc(Cl)c(Br)c2)C1 [Example 97, (E)-2-(3-(3-bromo-4-chlorophenyl)allyl)-N-((2-chloropyridin-4-yl)methyl)-8-cyano-1,2,3,4-tetrahydro-5H-pyrido[4,3-b]indole-5-carboxamide]
Haemonchus contortus L3
  minimal effective concentration: 0.3 µM
D. immitis microfilariae
  minimal effective concentration: > 100 µM

## O=C(NCc1ccnc(Cl)c1)n1c2c(c3ccc(Cl)cc31)CN(C/C=C/c1ccc(Cl)cc1)CC2 [Example 213, (E)-7-chloro-2-(3-(4-chlorophenyl)allyl)-N-((2-chloropyridin-4-yl)methyl)-1,2,3,4-tetrahydro-5H-pyrido[4,3-b]indole-5-carboxamide]
Haemonchus contortus L3
  minimal effective concentration: 0.3 µM
D. immitis microfilariae
  minimal effective concentration: 3.3 µM

## O=C(NCc1ccnc(F)c1)n1c2c(c3cc(Cl)ccc31)CN(C/C=C/c1ccc(F)cc1Cl)CC2 [Example 256, (E)-8-chloro-2-(3-(2-chloro-4-fluorophenyl)allyl)-N-((2-fluoropyridin-4-yl)methyl)-1,2,3,4-tetrahydro-5H-pyrido[4,3-b]indole-5-carboxamide]
Haemonchus contortus L3
  minimal effective concentration: 0.2 µM
D. immitis microfilariae
  minimal effective concentration: 10 µM

## O=C(NCc1ccnc(F)c1)n1c2c(c3cc(Br)ccc31)CN(C/C=C/c1ccc(Cl)c(F)c1)CC2 [Example 188, (E)-8-bromo-2-(3-(4-chloro-3-fluorophenyl)allyl)-N-((2-fluoropyridin-4-yl)methyl)-1,2,3,4-tetrahydro-5H-pyrido[4,3-b]indole-5-carboxamide]
Haemonchus contortus L3
  minimal effective concentration: 0.3 µM
D. immitis microfilariae
  minimal effective concentration: 3.3 µM

## O=C(NCc1ccnc(Cl)c1)n1c2c(c3cc(OC(F)(F)F)ccc31)CN(C/C=C/c1ccc(C(F)(F)F)cn1)CC2 [Example 385, (E)-N-((2-chloropyridin-4-yl)methyl)-8-(trifluoromethoxy)-2-(3-(5-(trifluoromethyl)pyridin-2-yl)allyl)-1,2,3,4-tetrahydro-5H-pyrido[4,3-b]indole-5-carboxamide]
Haemonchus contortus L3
  minimal effective concentration: 0.5 µM
D. immitis microfilariae
  minimal effective concentration: 47.8 µM

## Cc1cc2c(cc1OC(F)(F)F)c1c(n2C(=O)NCc2ccnc(Cl)c2)CCN(C/C=C/c2ccc(Cl)cc2)C1 [Example 494, (E)-2-(3-(4-chlorophenyl)allyl)-N-((2-chloropyridin-4-yl)methyl)-7-methyl-8-(trifluoromethoxy)-1,2,3,4-tetrahydro-5H-pyrido[4,3-b]indole-5-carboxamide]
Haemonchus contortus L3
  minimal effective concentration: 1 µM
D. immitis microfilariae
  minimal effective concentration: > 100 µM

## O=C(NCc1ccnc(Cl)c1)n1c2c(c3cc(Cl)ccc31)CN(C/C=C/c1ccc(F)cc1)CC2 [Example 244, (E)-8-chloro-N-((2-chloropyridin-4-yl)methyl)-2-(3-(4-fluorophenyl)allyl)-1,2,3,4-tetrahydro-5H-pyrido[4,3-b]indole-5-carboxamide]
Haemonchus contortus L3
  minimal effective concentration: 0.7 µM
D. immitis microfilariae
  minimal effective concentration: 10 µM

## COc1ccc(/C=C/CN2CCc3c(c4cc(OC(F)(F)F)ccc4n3C(=O)NCc3ccnc(Cl)c3)C2)cc1 [Example 394, (E)-N-((2-chloropyridin-4-yl)methyl)-2-(3-(4-methoxyphenyl)allyl)-8-(trifluoromethoxy)-1,2,3,4-tetrahydro-5H-pyrido[4,3-b]indole-5-carboxamide]
Haemonchus contortus L3
  minimal effective concentration: 1 µM
D. immitis microfilariae
  minimal effective concentration: 6.9 µM

## N#Cc1cc2c(cc1F)c1c(n2C(=O)NCc2ccnc(F)c2)CCN(C/C=C/c2ccc(Cl)cc2)C1 [Example 174, (E)-2-(3-(4-chlorophenyl)allyl)-7-cyano-8-fluoro-N-((2-fluoropyridin-4-yl)methyl)-1,2,3,4-tetrahydro-5H-pyrido[4,3-b]indole-5-carboxamide]
Haemonchus contortus L3
  minimal effective concentration: 57.4 µM
D. immitis microfilariae
  minimal effective concentration: > 100 µM
